Measurements: patent publication US5948786A, “Piperidinylpyrimidine derivatives” (Sumitomo Pharmaceuticals Company, Limited, priority 1996, dated 1999)

How the values were obtained:
Format in all cases: cell-based
[1] = tested on: HIV-1 LTR-CAT gene expression in Jurkat cells; test: PMA induced HIV-1 LTR-CAT gene expression in Jurkat cells; conditions: Homo sapiens, PMA 10 ng/ml, 24 hours
Description: (§1) p469, HIV-1 LTR driven CAT and pSV-Tat, Tat-expression vector were kindly provided from Dr. Gary J. Nabel (Nature Vol. 326, 711(1987))
(§2) RPMI 1640 medium (Life Technologies, Grand Island, N.Y., USA) was supplemented with heat-inactivated fetal calf serum (FBS; Sigma, St. Louis, Mo., USA).
(§3) Human T lymphoma cell line, Jurkat, was cultured in medium described above Transfection;
(§4) Introduction of plasmid DNA into cells was carried out according to the method described in Chiang, J. Li et al., Proc. Natl. Acad. Sci. Vol. 92, 5461-5464 (1995). Briefly, the cells were suspended with the medium at 2×10^7 cells/ml followed by addition 1 μg of p469 and 0.5 μg of DEAE-dextran (Sigma). In some experiments the cells were co-transfected with 0.5 μg of pSV-Tat. After 10 minutes incubation at room temperature with occasionally mixing, the cells were pulsed with electroporation apparatus at 140 V. The cells were re-suspended with the fresh medium and cultured for 20 hours at 37° C.
(§5) A compound tested was dissolved in dimethylsulfoxide at 100 mM as a stock solution. The aliquots of the stock solution were kept frozen at -20° C. Jurkat cells transfected with p469 were treated with 10 ng/ml of phorbol 12-myristate 13-acetate (PMA; Sigma) to activate HIV-1-LTR directed CAT gene transcription in the presence of the compound. In the case of cells transfected with p469 and pSV-Tat, they were simply treated with the compound. After the cells were cultured for an additional 24 hours at 37° C., the cells were washed 2 times with phosphate-buffered saline and lysed in 50 mM Tris-HCl plus 15% glycerol with repeated cycles of freeze and thaw. The cell lysates were clarified by centrifugation followed by determination of protein concentration by Bradford method (Bio-Rad, Hercules, Calif., USA). Measurement of a CAT activity in cell lysates was carried out according to a similar method described in Fridovich-Keil J. L. et. al., Cell Growth and Differentiation, Vol. 2, 67-76(1991). Equal amount (30 μg of protein) of cell lysates was incubated at 37° C. with 35 μg of acetyl co-enzyme A (GIBCO/BRL, Grand Island, Mo., USA) and 0.1 μCi of 14C-chloramphenicol (Dupont, NEN Boston, Mass., USA) in […] solution for 2 hours. Acetyl-14C-chloramphenicol was extracted with 9 volumes of ethyl acetate and fractionated on a TLC gel with 1:19 (v/v) in methanol/chloroform. The CAT activity was detected by autoradiography and quantified by an Imaging Densitometer (model GS-700; Bio-Rad).

[2] = tested on: TNF α production from human peripheral blood mononuclear cells (PBMC); test: Inhibitory activity of compound on TNF α production from PBMC
Description: TNF α was induced by 10 μg/ml of LPS (E. coli O111B4, DIFCO, Detroit, Mich., USA) the cells were cultured for 18 hours at 37° C. A compound of the present invention was dissolved in DMSO and added to the culture simultaneously with LPS. […] Each well of the plate first was incubated at room temperature with biotinylated anti-mouse TNF α polyclonal antibodies (PharMingen) for 45 minutes, then with peroxidase-conjugated streptavidin (Kirkegaard & Perry Laboratories Inc., Gaitherburg, Md., USA) for 30 minutes. After each incubation, the plate was washed 4 to 8 times with PBS containing 0.2% Tween 20. TMB (Kirkegaard & Perry Laboratories Inc.) was the peroxidase substrate used and, the absorbance of each well was quantified at 450 nm by a microplatereader (Molecular Devices Corp., CA, USA). TNF α levels in the supernatant were quantified with rm-TNF α as the standard. Inhibitory activity of TNF α production was also quantified using human peripheral blood mononuclear cells(PBMC) instead of PEC's. Results are shown in table 9, 10, 11, 12, 13, 14, 15, 16, 17, 18, 19 and 20.

[3] = tested on: Tat induced HIV-1 LTR-CAT gene expression in Jurkat cells; test: Tat induced HIV-1 LTR-CAT gene expression in Jurkat cells; conditions: Homo sapiens, Tat (pSV-Tat), 24 hours
Description: as §1, §2, §3, §4, §5

[4] = tested on: TNF α production from mouse macrophages; test: Inhibitory activity of compound on TNF α Production from mouse macrophages (LPS-induced PEC's); conditions: Macrophage, LPS 10 μg/ml, 18 hours
In short: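 Thioglycollate-elicited peritoneal macrophages from female BALB/c mice (adherent, 2×10^5 cells/well) were stimulated with 10 μg/ml LPS plus compound (final DMSO below 0.1%) for 18 h at 37°C. Supernatant TNF α was measured by sandwich ELISA (TMB, 450 nm) against a recombinant mouse TNF α standard.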

Row | SMILES | inhibition at 5 µM [1] [%] | inhibition at 30 µM [2] [%] | inhibition at 5 µM [3] [%] | inhibition at 30 µM [4] [%]
1 | Nc1nc(C2CCN(C(=O)c3ccc4c(c3)OCO4)CC2)c2ccccc2n1 [Example 65] | 94 | 46 | 81 | 
2 | COc1ccc2nc(N)nc(C3CCN(C(=O)c4ccc5c(c4)OCO5)CC3)c2c1 [Example 117] | 92 | 43 | 36 | 54
3 | Nc1nc(C2CCN(C(=O)c3ccc4c(c3)OCO4)CC2)c2cc(Cl)ccc2n1 [Example 130] | 67 | 57 |  | 100
4 | Nc1nc(-c2ccccc2)cc(C2CCN(C(=O)c3ccc4c(c3)OCO4)CC2)n1 [Example 140] | 100 | 35 |  | 72
5 | Nc1nc(-c2ccc(Cl)cc2)cc(C2CCN(C(=O)c3ccc4c(c3)OCO4)CC2)n1 [Example 150] | 54 | 11 |  | 100
6 | COc1ccc(-c2cc(C3CCN(C(=O)c4ccc5c(c4)OCO5)CC3)nc(N)n2)cc1 [Example 157] | 81 | 37 |  | 84
7 | COc1ccc(Cc2cc(C3CCN(C(=O)c4ccc5c(c4)OCO5)CC3)nc(N)n2)cc1 [Example 210, 2-amino-4-(4-methoxybenzyl)-6-[1-(3,4-methylenedioxybenzoyl)-4-piperidinyl]pyrimidine] | 81 | 80 | 66 | 75
8 | Nc1nc(CCc2ccccc2)cc(C2CCN(C(=O)c3ccc4c(c3)OCO4)CC2)n1 [Example 259] | 25 | 68 | 51 | 
9 | COc1ccc(Cc2cc(C3CCN(C(=O)CCN)CC3)nc(N)n2)cc1 [Example 287, 2-amino-4-[1-(3-aminopropanoyl)-4-piperidinyl]-6-(4-methoxyphenylmethyl)pyrimidine] |  |  |  | 40
10 | COc1ccc(Cc2cc(C3CCN(C(=O)c4ccc5[nH]cnc5c4)CC3)nc(N)n2)cc1 [Example 289] |  | 93 |  | 
11 | COc1ccc(Cc2cc(C3CCN(C(=O)c4ccc5[nH]ccc5c4)CC3)nc(N)n2)cc1 [Example 290] |  | 101 |  | 
12 | COc1ccc(Cc2cc(C3CCN(C(=O)c4ccc5c(c4)OCCO5)CC3)nc(N)n2)cc1 [Example 291] |  | 88 |  | 
13 | COc1ccc(Cc2cc(C3CCN(C(=O)c4ccc(F)c(F)c4)CC3)nc(N)n2)cc1 [Example 292] |  | 66 |  | 
14 | COc1ccc(Cc2cc(C3CCN(C(=O)c4ccc(O)c(OC)c4)CC3)nc(N)n2)cc1 [Example 300] |  | 80 |  | 
15 | COc1ccc(Cc2cc(C3CCN(C(=O)c4ccc(OC)c(O)c4)CC3)nc(N)n2)cc1 [Example 301] |  | 88 |  | 
16 | COc1ccc(Cc2cc(C3CCN(C(=O)c4ccc(O)c(O)c4)CC3)nc(N)n2)cc1 [Example 302, 2-Amino-4-[1-(3,4-dihydroxybenzoyl)-4-piperidinyl]-6-(4-methoxyphenylmethyl) pyrimidine] |  | 86 |  | 
17 | Nc1nc(Cc2ccc(Br)cc2)cc(C2CCN(C(=O)c3ccc4c(c3)OCO4)CC2)n1 [Example 303, 2-Amino-4-(4-bromophenylmethyl)-6-[1-(3,4-methylenedioxybenzoyl)-4-piperidinyl]pyrimidine] |  | 92 | 65 | 
18 | Nc1nc(Cc2ccccc2)cc(C2CCN(C(=O)c3ccc4c(c3)OCO4)CC2)n1 [Example 304] |  | 83 | 44 | 
19 | COc1cccc(Cc2cc(C3CCN(C(=O)c4ccc5c(c4)OCO5)CC3)nc(N)n2)c1 [Example 305] |  | 80 | 72 | 
20 | COc1ccc(Cc2cc(C3CCN(C(=O)c4ccc5c(c4)OCO5)CC3)nc(N)n2)cc1OC [Example 306] | 75 | 85 | 22 | 
21 | COc1ccc(OC)c(Cc2cc(C3CCN(C(=O)c4ccc5c(c4)OCO5)CC3)nc(N)n2)c1 [Example 307] | 97 | 81 | 66 | 
22 | COc1cc(Cc2cc(C3CCN(C(=O)c4ccc5c(c4)OCO5)CC3)nc(N)n2)cc(OC)c1 [Example 308] |  | 87 | 70 | 
23 | COc1cc(Cc2cc(C3CCN(C(=O)c4ccc5c(c4)OCO5)CC3)nc(N)n2)cc(OC)c1OC [Example 309] |  | 65 | 62 | 
24 | Nc1nc(Cc2ccccc2Cl)cc(C2CCN(C(=O)c3ccc4c(c3)OCO4)CC2)n1 [Example 310] |  | 83 | 67 | 
25 | Nc1nc(Cc2ccc(Cl)c(Cl)c2)cc(C2CCN(C(=O)c3ccc4c(c3)OCO4)CC2)n1 [Example 311] |  | 69 | 63 | 
26 | Nc1nc(Cc2ccc(Cl)cc2Cl)cc(C2CCN(C(=O)c3ccc4c(c3)OCO4)CC2)n1 [Example 312] |  | 57 | 65 | 
27 | Nc1nc(Cc2c(Cl)cccc2Cl)cc(C2CCN(C(=O)c3ccc4c(c3)OCO4)CC2)n1 [Example 313] |  | 91 | 69 | 
28 | Nc1nc(Cc2ccc3c(c2)OCO3)cc(C2CCN(C(=O)c3ccc4c(c3)OCO4)CC2)n1 [Example 314] |  | 84 | 76 | 
29 | Nc1nc(Cc2ccc(O)cc2)cc(C2CCN(C(=O)c3ccc4c(c3)OCO4)CC2)n1 [Example 315, 2-Amino-4-(4-hydroxyphenylmethyl)-6-[1-(3,4-methylenedioxybenzoyl)-4-piperidinyl] pyrimidine] |  | 86 |  | 
